Data taken from article PMC11784839, “Monoaminergic neurotransmitters are bimodal effectors of tau aggregation” (Science Advances, 2025).

Molecular target: tau (Homo sapiens, UniProt P10636)
Assay: MCE Phenols Library screening, tau biosensor cell seeding assay (AvZ)
Format: cell-based
Details: for Z repl 1 / Z Repl 2: Z score; for Z repl 1 / raw data 1: replicate 1; for Z Repl 2 / raw data 2: replicate 2; for AvZ (average z score of seeding, SDs from the mean level of seeding): 10 μM phenol in cell cultures, AD brain homogenate preincubated 16 hours, two biological replicates, positive = catalyzes seeding, negative = inhibits
[1] = average Z score of the two replicates, MCE Phenols Library screen
[2] = average puncta of the two replicates
[3] = average Z score of the two replicates, tau seeding
[4] = average Z score of two replicates, Phenols Library screen
[5] = average Z score of the two replicates, tau biosensor seeding, MCE Phenols Library screen

tau, sequence (P10636 623-695 limits assumed): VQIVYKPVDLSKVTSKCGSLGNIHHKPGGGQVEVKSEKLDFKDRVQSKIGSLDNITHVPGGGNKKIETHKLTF

With O=C(/C=C/c1ccc(O)c(O)c1)N[C@@H](Cc1ccc(O)c(O)c1)C(=O)O [Clovamide] the “Z repl 1” value was -0.17, the “Z Repl 2” value was -1.084 and the “av Z” value [1] was -0.627. The av puncta [2] was 12750.8, the “raw data 1” value (puncta) was 24311.1 and the “raw data 2” value (puncta) was 1190.55.
With COc1ccc(-c2oc3c(CC=C(C)C)c(O[C@@H]4O[C@H](CO)[C@@H](O)[C@H](O)[C@H]4O)cc(O)c3c(=O)c2O[C@@H]2O[C@@H](C)[C@H](O)[C@@H](O)[C@H]2O[C@@H]2OC[C@@H](O)[C@H](O)[C@H]2O)cc1 [Epimedin B] the “Z repl 1” value was 0.357, the “Z Repl 2” value was 0.482 and the “av Z” value [3] was 0.42. The av puncta (average of raw data 1 and 2) was 24278.7, the “raw data 1” value (puncta) was 30639 and the “raw data 2” value (puncta) was 17918.4.
In the case of Nc1ccc(O)c(C(=O)O)c1 [5-Aminosalicylic Acid, reference compound], the “AvZ (average z score of seeding, SDs from the mean level of seeding)” value (“AvZ” for short) was -0.176, the “Z repl 1” value was -0.552 and the “Z Repl 2” value was 0.2. The av puncta (average of raw data 1 and 2) was 17310.9, the “raw data 1” value (puncta) was 19721.7 and the “raw data 2” value (puncta) was 14900.2.
In the case of COc1cc(/C=C/C(=O)O)cc(O)c1O [5-Hydroxyferulic acid], the “AvZ” value was -0.968, the “Z repl 1” value was -0.814 and the “Z Repl 2” value was -1.121. For the same compound, the av puncta (average of raw data 1 and 2) was 8685.03, the “raw data 1” value (puncta) was 16579.9 and the “raw data 2” value (puncta) was 790.19.
O=C(O[C@@H]1[C@@H](O)[C@H](Oc2cc(O)c(C(=O)CCc3ccccc3)c(O)c2)O[C@@H]2COC(=O)c3cc(O)c(O)c(O)c3-c3c(cc(O)c(O)c3O)C(=O)O[C@@H]12)c1cc(O)c(O)c(O)c1 [Thonningianin A] was tested, and the “Z repl 1” value was -1.226, the “Z Repl 2” value was -0.652 and the “av Z” value [1] was -0.939. For the same compound, the av puncta (average of raw data 1 and 2) was 8713.6, the “raw data 1” value (puncta) was 11629.9 and the “raw data 2” value (puncta) was 5797.27.
In the case of NCc1ccc(O)cc1 [4-Hydroxybenzylamine], the “AvZ” value was -0.572, the “Z repl 1” value was -0.693 and the “Z Repl 2” value was -0.451. The av puncta [2] was 12984.9, the “raw data 1” value (puncta) was 18024.8 and the “raw data 2” value (puncta) was 7945.11.
With COc1cc(-c2coc3cc(O[C@@H]4O[C@H](CO)[C@@H](O)[C@H](O)[C@H]4O)c(OC)c(O)c3c2=O)ccc1O [Iristectorin B] the “Z repl 1” value was -0.293, the “Z Repl 2” value was -0.887 and the “av Z” value [1] was -0.59. The av puncta [2] was 13061.4, the “raw data 1” value (puncta) was 22827.1 and the “raw data 2” value (puncta) was 3295.67.
With O=C(/C=C/c1ccc(O)c(O)c1)O[C@@H]1C[C@](O)(C(=O)O)C[C@@H](OC(=O)/C=C/c2ccc(O)c(O)c2)[C@H]1O [Isochlorogenic acid A] the “Z repl 1” value was -0.182, the “Z Repl 2” value was 0.275 and the “av Z” value [4] was 0.046. The av puncta (average of raw data 1 and 2) was 19930.3, the “raw data 1” value (puncta) was 24161.4 and the “raw data 2” value (puncta) was 15699.2.
With COc1ccc2c(c1O)-c1c(OC)c(OC)cc3c1[C@H](C2)N(C)CC3 [Isocorydine] the “Z repl 1” value was -0.45, the “Z Repl 2” value was -0.651 and the “av Z” value [1] was -0.55. The av puncta [2] was 13380.4, the “raw data 1” value (puncta) was 20943.6 and the “raw data 2” value (puncta) was 5817.19.
COc1cc(C)c2c(=O)cc(C[C@@H](C)O)oc2c1[C@@H]1O[C@H](CO)[C@@H](O)[C@H](O)[C@H]1OC(=O)/C=C/c1ccc(O)cc1 [Aloeresin D] was tested, and the “Z repl 1” value was -0.796, the “Z Repl 2” value was -0.937 and the “av Z” value [1] was -0.867. For the same compound, the av puncta (average of raw data 1 and 2) was 9774.18, the “raw data 1” value (puncta) was 16789.2 and the “raw data 2” value (puncta) was 2759.19.
In the case of COc1cc(-c2oc3cc(O)cc(O)c3c(=O)c2O[C@@H]2O[C@H](CO[C@@H]3O[C@@H](C)[C@H](O)[C@@H](O)[C@H]3O)[C@@H](O)[C@H](O)[C@H]2O[C@@H]2O[C@@H](C)[C@H](O)[C@@H](O)[C@H]2O)ccc1O [Typhaneoside], the “Z repl 1” value was -0.172, the “Z Repl 2” value was -0.068 and the “av Z” value [4] was -0.12. For the same compound, the av puncta (average of raw data 1 and 2) was 18163.3, the “raw data 1” value (puncta) was 24283.7 and the “raw data 2” value (puncta) was 12042.9.
For COc1cc(O)c2c(c1)O[C@H](c1ccc(O)cc1)CC2=O [Sakuranetin], the “Z repl 1” value was 0.003, the “Z Repl 2” value was -0.01 and the “av Z” value [4] was -0.004. The av puncta (average of raw data 1 and 2) was 19521.3, the “raw data 1” value (puncta) was 26379.5 and the “raw data 2” value (puncta) was 12663.1.
With C[C@@H]1O[C@@H](O[C@H]2[C@H](Oc3c(-c4ccc(O)cc4)oc4cc(O)cc(O)c4c3=O)O[C@H](CO)[C@@H](O)[C@@H]2O)[C@H](O)[C@H](O)[C@H]1O [Kaempferol 3-neohesperidoside] the “Z repl 1” value was -1.386, the “Z Repl 2” value was -0.619 and the “av Z” value [1] was -1.002. The av puncta (average of raw data 1 and 2) was 7935.47, the “raw data 1” value (puncta) was 9710.86 and the “raw data 2” value (puncta) was 6160.09.
For COc1cc(CCO[C@@H]2O[C@H](CO[C@@H]3O[C@H](CO)[C@@H](O)[C@H](O)[C@H]3O)[C@@H](OC(=O)/C=C/c3ccc(O)c(O)c3)[C@H](O[C@@H]3O[C@@H](C)[C@H](O)[C@@H](O)[C@H]3O)[C@H]2O)ccc1O [Cistanoside A], the “Z repl 1” value was -0.369, the “Z Repl 2” value was -0.502 and the “av Z” value [1] was -0.435. For the same compound, the av puncta [2] was 14662.2, the “raw data 1” value (raw puncta) was 21923.2 and the “raw data 2” value (raw puncta) was 7401.19.
For C=CCc1ccc(O)c(OC)c1 [Eugenol], the “AvZ” value was -0.624, the “Z repl 1” value was -0.386 and the “Z Repl 2” value was -0.861. The av puncta [2] was 12641.9, the “raw data 1” value (puncta) was 21709.5 and the “raw data 2” value (puncta) was 3574.2.
With O=C1CC(C(=O)O)c2c1oc(=O)c1cc(O)c(O)c(O)c21 (stereo not drawn) [Brevifolincarboxylic acid] the “Z repl 1” value was -1.001, the “Z Repl 2” value was -1.013 and the “av Z” value [1] was -1.007. For the same compound, the av puncta (average of raw data 1 and 2) was 8139.85, the “raw data 1” value (puncta) was 14330.3 and the “raw data 2” value (puncta) was 1949.4.
With O=C1c2c(O)cccc2C([C@@H]2O[C@H](CO)[C@@H](O)[C@H](O)[C@H]2O)c2cc(CO)cc(O)c21 (stereo partly drawn) [Aloin] the “Z repl 1” value was 0.178, the “Z Repl 2” value was 0.236 and the “av Z” value [3] was 0.207. The av puncta (average of raw data 1 and 2) was 21886.9, the “raw data 1” value (puncta) was 28489.7 and the “raw data 2” value (puncta) was 15284.2.
With O=c1c(-c2ccc(O)cc2)coc2cc(O)cc(O)c12 [Genistein] the “Z repl 1” value was 0.361, the “Z Repl 2” value was 0.231 and the “av Z” value [3] was 0.296. For the same compound, the av puncta (average of raw data 1 and 2) was 22958.3, the “raw data 1” value (puncta) was 30681.6 and the “raw data 2” value (puncta) was 15235.1.
CC1(C)C=Cc2c(ccc3c2OC[C@@H](c2ccc(O)cc2O)C3)O1 [Glabridin] was tested, and the “Z repl 1” value was 0.624, the “Z Repl 2” value was 0.805 and the “av Z” value [3] was 0.715. For the same compound, the av puncta (average of raw data 1 and 2) was 27603.9, the “raw data 1” value (puncta) was 33843.5 and the “raw data 2” value (puncta) was 21364.3.
For OC[C@H]1O[C@@H](Oc2ccc(O)cc2)[C@H](O)[C@@H](O)[C@@H]1O [?-Arbutin], the “Z repl 1” value was 1.599, the “Z Repl 2” value was 0.945 and the “av Z” value [5] was 1.272. For the same compound, the av puncta (average of raw data 1 and 2) was 34202.6, the “raw data 1” value (puncta) was 45542.6 and the “raw data 2” value (puncta) was 22862.6.
For O=Cc1ccc(O)c(O)c1 [Protocatechualdehyde], the “AvZ” value was -0.588, the “Z repl 1” value was -0.894 and the “Z Repl 2” value was -0.283. The av puncta [2] was 12680.1, the “raw data 1” value (puncta) was 15614.9 and the “raw data 2” value (puncta) was 9745.34.
CC(C)=CCc1c(O)cc2c(c1O)C(=O)C[C@@H](c1ccc(O)cc1)O2 [(2S)-6-Prenylnaringenin] was tested, and the “Z repl 1” value was 0.006, the “Z Repl 2” value was 0.268 and the “av Z” value [3] was 0.137. The av puncta (average of raw data 1 and 2) was 21024, the “raw data 1” value (puncta) was 26415.8 and the “raw data 2” value (puncta) was 15632.3.
COC(=O)c1ccccc1O [Methyl Salicylate] was tested, and the “AvZ” value was -0.502, the “Z repl 1” value was -0.127 and the “Z Repl 2” value was -0.877. For the same compound, the av puncta [2] was 14109.8, the “raw data 1” value (puncta) was 24825.4 and the “raw data 2” value (puncta) was 3394.27.
Oc1c(Br)cccc1Br [2,6-Dibromophenol] was tested, and the “AvZ” value was -0.18, the “Z repl 1” value was -0.611 and the “Z Repl 2” value was 0.25. For the same compound, the av puncta (average of raw data 1 and 2) was 17229.5, the “raw data 1” value (puncta) was 19019.6 and the “raw data 2” value (puncta) was 15439.4.
COc1cc(/C=C/C(=O)OCC[N+](C)(C)C)cc(OC)c1O.N#C[S-] [Sinapine (thiocyanate)] was tested, and the “AvZ” value was 0.005, the “Z repl 1” value was 0.104 and the “Z Repl 2” value was -0.095. The av puncta (average of raw data 1 and 2) was 19676.8, the “raw data 1” value (puncta) was 27602.3 and the “raw data 2” value (puncta) was 11751.4.
In the case of Oc1cc(O)c2c(c1)O[C@H](c1ccc(O)c(O)c1)[C@H](O)[C@H]2c1c(O)cc(O)c2c1O[C@H](c1ccc(O)c(O)c1)[C@H](O)[C@H]2c1c(O)cc(O)c2c1O[C@H](c1ccc(O)c(O)c1)[C@H](O)C2 [Procyanidin C1], the “Z repl 1” value was 0.76, the “Z Repl 2” value was 1.6 and the “av Z” value [5] was 1.18. The av puncta (average of raw data 1 and 2) was 32664.3, the “raw data 1” value (puncta) was 35473.6 and the “raw data 2” value (puncta) was 29854.9.
Cc1cc(O)c2c(=O)c3c(O)cc(O)c4c5c(O)cc(O)c6c(=O)c7c(O)cc(C)cc7c(c65)c(c2c1)c34 [Protohypericin] was tested, and the “Z repl 1” value was -0.657, the “Z Repl 2” value was -0.804 and the “av Z” value [1] was -0.73. The av puncta [2] was 11323.3, the “raw data 1” value (puncta) was 18463.4 and the “raw data 2” value (puncta) was 4183.21.
In the case of CC(=O)O[C@H]1C(=O)c2c(O)cc(O)cc2O[C@@H]1c1ccccc1 [Pinobanksin 3-acetate], the “Z repl 1” value was 0.2, the “Z Repl 2” value was -0.125 and the “av Z” value [4] was 0.037. The av puncta (average of raw data 1 and 2) was 20089.3, the “raw data 1” value (puncta) was 28746.2 and the “raw data 2” value (puncta) was 11432.4.
In the case of C=CCc1ccc(O)c(O)c1 [4-Allylcatechol], the “AvZ” value was -0.761, the “Z repl 1” value was -0.394 and the “Z Repl 2” value was -1.127. The av puncta (average of raw data 1 and 2) was 11173.7, the “raw data 1” value (puncta) was 21621.8 and the “raw data 2” value (puncta) was 725.499.
For COc1cc(/C=C/C=O)cc(OC)c1O [Sinapaldehyde], the “AvZ” value was 0.096, the “Z repl 1” value was 0.021 and the “Z Repl 2” value was 0.172. The av puncta (average of raw data 1 and 2) was 20601.9, the “raw data 1” value (puncta) was 26603.6 and the “raw data 2” value (puncta) was 14600.1.
